# Measurements published in patent US20140206629A1, “Stromal Derived Factor Inhibition And CXCR4 Blockade” (RHODE ISLAND HOSPITAL, priority 2011, published 2014).
# Entries after “also recorded” stand apart in the source; their conditions may differ.
# What was measured:
# [1] = system: IL-1β induced SDF-1 expression in human subacromial bursal cells; experiment: SDF-1α protein (ELISA) in supernatants of IL-1β-treated cultured bursal cells with inhibitors; assay type: cell-based; conditions: bursal cells treated with IL-1β 20 ng/mL plus inhibitor
# Experimental: (§1) Human subacromial bursal biopsy specimens were obtained as above. Tissues were washed with Hank's balanced salt solution (Gibco), minced with scissors, and resuspended in Dulbecco's minimum essential medium (DMEM, Gibco) containing 1 mg/ml collagenase, 0.15 mg/ml DNase, and 0.15 mg/ml hyaluronidase. The tissue was enzymatically digested for 2 hours at 37° C. and then passed through sterile gauze to remove any undigested fragments. Cells were seeded in 75 cm2 flasks with DMEM supplemented with 10% fetal bovine serum (FBS), 100 U/ml penicillin, 100 μg/ml streptomycin, and 0.1% fungizone (amphotericin B) and grown at 37° C. in a humidified atmosphere of 5% CO2 and 95% air. Subcultures were performed with Trypsin-EDTA treatment (Gibco).
# Subacromial bursal cells were cultured as above. After the first passage, cells were plated into 6-well plates and grown to 85% confluence. Wells were then treated (in triplicate) with IL-1β 20 ng/mL and respective inhibitors (AMD3100, T140 analog, dexamethasone or NSAID). After 24 hours, supernatants were collected and assayed for SDF-1α expression using Quantikineâ Human SDF-1α enzyme immunoassay kit (R & D System) according to the manufacturer's instructions. Standard curves were reconstituted using SDF-1α protein. The optical density of each well was determined using a microplate reader set to 450 nm wavelength. […]
# [2] = system: IL-1β induced SDF-1 mRNA expression in human subacromial bursal cells; experiment: SDF-1α mRNA (RT-PCR) in IL-1β-treated cultured bursal cells with inhibitors; assay type: cell-based; conditions: bursal cells treated with IL-1β plus inhibitor
# Experimental: Subacromial bursal cells were cultured as above. First-passaged cells were treated with IL-1β and respective inhibitors as above. Total RNA was isolated using Qiagen RNeasy Mini Kit (Qiagen, Valencia, Calif.). First-strand cDNA was synthesized using 1 μg of total RNA and Superscript III™ First-Strand Synthesis System (Invitrogen). […] All PCR were performed in 25-μl reactions on a DNA Engine Opticon™ 2 Detection System (MJ Research, Hercules, Calif.) for 40 cycles in which each cycles consisted of 15 sec at 95° C., 15 sec at 60° C., and 20 sec at 72° C. Results were standardized to GAPDH housekeeping gene. Statistical analysis was performed using the student's t-test. […]
# [3] = system: human subacromial bursal cells; experiment: Cell migration assay of bursal cells in response to SDF-1 stimulation; assay type: cell-based; conditions: in the presence of CXCR4 inhibitor
# Description: FIG. 6 is a bar graph showing cell migration assay of human subacromial bursal cells in the presence of CXCR4 inhibitors AMD3100 and T140.
# [4] = system: rat rotator cuff tendons
# Description: 58 male Lewis rat shoulders underwent surgery using an IACUC approved protocol. The infraspinatus tendon was transected at its insertion to create a tendon defect (FIG. 7). […] Animals were sacrificed at 3, 7, 14, 28 or 42 days. Eight uninjured rat shoulders were used as controls. Preconditioned for 5 cycles to 0.38 mm displacement in tension at a rate of 0.1 mm/s Stress relaxation test for 300 s duration at 0.38 displacement in tension Return to 0.2 N tension followed by a 300 s latency period Tension to failure at a displacement rate of 0.1 mm/s
# [5] = target: CCR5 (Homo sapiens, UniProt P51681); conditions: cited from earlier work
# Sequence of CCR5 (P51681 whole entry): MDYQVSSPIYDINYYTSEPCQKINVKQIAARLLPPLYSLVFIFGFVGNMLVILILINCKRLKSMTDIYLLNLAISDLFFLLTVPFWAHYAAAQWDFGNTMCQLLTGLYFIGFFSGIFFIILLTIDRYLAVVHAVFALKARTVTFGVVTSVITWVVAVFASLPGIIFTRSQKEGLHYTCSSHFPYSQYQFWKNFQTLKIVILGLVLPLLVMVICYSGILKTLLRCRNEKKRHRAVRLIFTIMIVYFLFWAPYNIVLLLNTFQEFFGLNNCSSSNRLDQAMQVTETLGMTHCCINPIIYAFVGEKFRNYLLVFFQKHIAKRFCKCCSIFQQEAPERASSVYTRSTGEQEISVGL
# [6] = system: human subacromial bursal cells; experiment: Cytokine stimulation of SDF-1α protein production in cultured bursal cells (ELISA); assay type: cell-based
# Experimental: as §1
# SDF-1 expression was induced by stimulating bursal cells with IL-1β. SDF-1 levels were measured in cell supernatants and mRNA levels were tested using real-time RT-PCR at various time points. SDF-1 expression increased with time and occurred in a dose-dependent fashion. […] (FIG. 3) These experiments were reproducible with cells grown from several different tissue samples.
# (§2) Subacromial bursa specimens were obtained from patients undergoing shoulder surgery. […] Early-passaged cells were then treated with cytokines ([…] and IL-6) and SDF-1α expression was measured by ELISA and RT-PCR.
# [7] = system: human subacromial bursal cells; experiment: Cytokine stimulation of SDF-1α mRNA expression in cultured bursal cells (RT-PCR); assay type: cell-based; conditions: cytokine-treated bursal cells vs controls; maximal at 24 hours
# Experimental: as §1
# Subacromial bursal cells were cultured as above. […] SDF-1 mRNA was quantified with SDF-1 specific primers SDF-1FOR (5′-GATTGTAGCCCGGCT GAAGAA-3′) (SEQ ID NO: 11) and SDF-1BACK (5′-[…]-3′) (SEQ ID NO: 12). […]
# SDF-1 expression was induced by stimulating bursal cells with IL-1β. SDF-1 levels were measured in cell supernatants and mRNA levels were tested using real-time RT-PCR at various time points. […]
# as §2
Molecule,decrease of SDF-1α protein production/expression in supernatants [1] [%],SDF-1α mRNA expression [2],bursal cell migration in response to SDF-1 stimulation [3],inflammation in the subacromial bursa ([4]; rat shoulder with experimentally induced rotator cuff injury),"maximum load in the infraspinatus bone-tendon complex compared to controls (PBS) ([4]; rat, osmotic minipump, 3, 7, 14, 28 or 42 days post injury)",binding to chemokine receptor CCR5 [5],increase in SDF-1α protein production/expression ([6]; cytokine-treated bursal cells),"SDF-1α production, maximal stimulation ([6]; exposure to 20 ng/ml IL-1β) [pg/10^4 cells]",increase in SDF-1α gene (mRNA) expression [7]
"c1cc(CN2CCCNCCNCCCNCC2)ccc1CN1CCCNCCNCCCNCC1 [AMD3100, 1,1′-[1,4-phenylenebis(methylene)]-bis-1,4,8,11-azatetradecane]",40,only a slight decrease,decreased,reduced inflammation,No statistically significant differences,does not bind,–,–,–
IL-1β,–,–,–,–,–,–,more than five-fold increase,630,nearly five-fold increase; also recorded: more than five-fold increase
C[C@@H]1C[C@H]2[C@@H]3CCC4=CC(=O)C=C[C@]4(C)[C@@]3(F)[C@@H](O)C[C@]2(C)[C@@]1(O)C(=O)CO [dexamethasone],87,–,–,–,–,–,–,–,–
